From PubChem BioAssay AID220 (DTP/NCI, 2004)
“And” between values parts separate entries of the source, which are not always exact repeats. Equal entries are not always repeated. Results filed as inconclusive are left out.

System: CD8F1 mice, subcutaneous mammary adenocarcinoma, T/C%
Assay: NCI In Vivo Anticancer Drug Screen. Data for tumor model Mammary Adenocarcinoma CD8F1 (subcutaneous) in CD8F1
Conditions: higher = larger tumour
Procedure, shortened: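 Ratio of treated to vehicle-control outcome, based on either survival or tumor size, in mice bearing transplantable tumors given the test compound.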

[1] = endpoint: median tumor weight (est.), dose: 25.0 mg/kg/injection, schedule: Q07DX005 (ip), vehicle: saline with Tween-80
[2] = endpoint: median tumor weight (est.), dose: 50.0 mg/kg/injection, schedule: Q07DX005 (ip), vehicle: saline with Tween-80
[3] = endpoint: median tumor weight (est.), dose: 100.0 mg/kg/injection, schedule: Q07DX005 (ip), vehicle: saline with Tween-80
[4] = endpoint: median tumor weight (est.), dose: 200.0 mg/kg/injection, schedule: Q07DX005 (ip), vehicle: saline with Tween-80
[5] = endpoint: median tumor weight change, dose: 250.0 mg/kg/injection, schedule: Q01DX001 (ip), vehicle: Klucel (hydroxypropylcellulose) (HPC)

CN1CCN(Cc2nc3cccc4c3c([n+]2[O-])-c2ccccc2-4)CC1
T/C (endpoint: median tumor weight (est.), dose: 12.5 mg/kg/injection, schedule: Q07DX005 (ip), vehicle: saline with Tween-80): 180 % of control | T/C [1]: 114 % of control | T/C [2]: 99 % of control | T/C [3]: 120 % of control | T/C [4]: 68 % of control

C[C@H](CCC[C@H](C)OS(=O)(=O)c1ccccc1)OS(=O)(=O)c1ccccc1
T/C [1]: 57 % of control | T/C [2]: 41 % of control | T/C [3]: 57 % of control | T/C [4]: 39 % of control

S=C(Nc1ccc(Cl)c(Cl)c1)N1c2ccccc2-n2cccc2C1c1cccnc1 (centres undefined)
T/C [5]: 48 % of control and 67 % of control | T/C (endpoint: median tumor weight change, dose: 500.0 mg/kg/injection, schedule: Q01DX001 (ip), vehicle: Klucel (hydroxypropylcellulose) (HPC)): 49 % of control and 57 % of control | T/C (endpoint: median tumor weight change, dose: 1000.0 mg/kg/injection, schedule: Q01DX001 (ip), vehicle: Klucel (hydroxypropylcellulose) (HPC)): 50 % of control and 70 % of control | T/C (endpoint: median tumor weight change, dose: 2000.0 mg/kg/injection, schedule: Q01DX001 (ip), vehicle: Klucel (hydroxypropylcellulose) (HPC)): -11 % of control

COc1cc(Cc2nccc3cc(OC)c(OC)cc23)c(C(C)=O)cc1OC
T/C (endpoint: median tumor weight change, dose: 62.0 mg/kg/injection, schedule: Q01DX001 (ip), vehicle: saline): 93 % of control | T/C (endpoint: median tumor weight change, dose: 62.5 mg/kg/injection, schedule: Q01DX001 (ip), vehicle: saline): 41 % of control | T/C (endpoint: median tumor weight change, dose: 62.5 mg/kg/injection, schedule: Q01DX001 (ip), vehicle: suspension in saline): 54 % of control | T/C (endpoint: median tumor weight change, dose: 125.0 mg/kg/injection, schedule: Q01DX001 (ip), vehicle: saline): 33 % of control and 35 % of control | T/C (endpoint: median tumor weight change, dose: 125.0 mg/kg/injection, schedule: Q01DX001 (ip), vehicle: suspension in saline): 57 % of control | T/C (endpoint: median tumor weight change, dose: 250.0 mg/kg/injection, schedule: Q01DX001 (ip), vehicle: saline): -6 % of control

O=c1nc(-c2ccco2)sc(=O)[nH]1
T/C (endpoint: median tumor weight change, dose: 31.25 mg/kg/injection, schedule: Q01DX001 (ip), vehicle: Klucel (hydroxypropylcellulose) (HPC)): 123 % of control | T/C (endpoint: median tumor weight change, dose: 62.5 mg/kg/injection, schedule: Q01DX001 (ip), vehicle: Klucel (hydroxypropylcellulose) (HPC)): 63 % of control | T/C (endpoint: median tumor weight change, dose: 125.0 mg/kg/injection, schedule: Q01DX001 (ip), vehicle: Klucel (hydroxypropylcellulose) (HPC)): 120 % of control | T/C [5]: 53 % of control

COC1=C(C)C(=O)C2=C(C1=O)C1C3CC4=C(C(=O)C(OC)=C(C)C4=O)C(CNC(=O)C(C)=O)N3C(C#N)C(C2)N1C (centres undefined)
T/C (endpoint: median tumor weight change, dose: 0.62 mg/kg/injection, schedule: Q01DX001 (ip), vehicle: Klucel (hydroxypropylcellulose) (HPC)): 114 % of control | T/C (endpoint: median tumor weight change, dose: 0.63 mg/kg/injection, schedule: Q01DX001 (ip), vehicle: Klucel (hydroxypropylcellulose) (HPC)): 119 % of control | T/C (endpoint: median tumor weight change, dose: 1.2 mg/kg/injection, schedule: Q01DX001 (ip), vehicle: Klucel (hydroxypropylcellulose) (HPC)): 109 % of control | T/C (endpoint: median tumor weight change, dose: 1.25 mg/kg/injection, schedule: Q01DX001 (ip), vehicle: Klucel (hydroxypropylcellulose) (HPC)): 96 % of control | T/C (endpoint: median tumor weight change, dose: 2.5 mg/kg/injection, schedule: Q01DX001 (ip), vehicle: Klucel (hydroxypropylcellulose) (HPC)): 98 % of control and 114 % of control

C[C@]12CC[C@@H]3c4ccc(O)cc4CC[C@H]3[C@@H]1CC[C@@H]2O
T/C (endpoint: median tumor weight (est.), dose: 6.25 mg/kg/injection, schedule: Q07DX005 (ip), vehicle: Klucel (hydroxypropylcellulose) (HPC)): 97 % of control | T/C (endpoint: median tumor weight (est.), dose: 25.0 mg/kg/injection, schedule: Q07DX005 (ip), vehicle: Klucel (hydroxypropylcellulose) (HPC)): 27 % of control

OC(C1CO1)C(O)C1CO1 (centres undefined)
T/C (endpoint: median tumor weight (est.), dose: 0.5 mg/kg/injection, schedule: Q07DX005 (ip), vehicle: saline): 49 % of control | T/C (endpoint: median tumor weight (est.), dose: 1.0 mg/kg/injection, schedule: Q07DX005 (ip), vehicle: saline): 28 % of control | T/C (endpoint: median tumor weight (est.), dose: 2.0 mg/kg/injection, schedule: Q07DX005 (ip), vehicle: saline): 37 % of control | T/C (endpoint: median tumor weight (est.), dose: 4.0 mg/kg/injection, schedule: Q07DX005 (ip), vehicle: saline): 13 % of control | T/C (endpoint: median tumor weight (est.), dose: 8.0 mg/kg/injection, schedule: Q07DX005 (ip), vehicle: saline): 5 % of control

O=C(C/C(=N\C(=S)Nc1cc(C(F)(F)F)ccc1Cl)NO)N1CCCC1
T/C (endpoint: median tumor weight change, dose: 62.5 mg/kg/injection, schedule: Q01DX001 (ip), vehicle: saline with Tween-80): 76 % of control | T/C (endpoint: median tumor weight change, dose: 125.0 mg/kg/injection, schedule: Q01DX001 (ip), vehicle: saline with Tween-80): 83 % of control and 90 % of control

O=C1C=C(C2OC(CO)C(O)C2O)C(=O)N1 (centres undefined)
T/C (endpoint: median tumor weight (est.), dose: 1.56 mg/kg/injection, schedule: Q07DX005 (ip), vehicle: saline): 73 % of control | T/C (endpoint: median tumor weight (est.), dose: 6.25 mg/kg/injection, schedule: Q07DX005 (ip), vehicle: saline): 114 % of control
